Test results as given in patent US20240043390A1, “COMPOSITIONS AND METHODS FOR TREATING CANCER” (The Regents of the University of California, priority 2017, published 2024).
Like-named read-outs stand apart in the source and are kept apart here. One block for each molecule: values may come before it.

What was measured:
[1] = tested on: patient-derived GBM gliomaspheres; assay: Annexin V apoptosis assay; assay type: cell-based, human; settings: for lethality in combination with nutlin: EGFRi non-responder cells (HK393, HK254)
Method: (§1) Cells were collected and analyzed for Annexin V and PI staining according to manufacturer's protocol (BD Biosciences). Briefly, cells were plated at 5×10^4 cells/ml and treated with appropriate drugs. Following indicated time points, cells were collected, trypsinized, washed with PBS, and stained with Annexin V and PI for 15 minutes. Samples were then analyzed using the BD LSRII flow cytometer.
(§2) Annexin V staining was measured following 72 hrs of treatment. Using the Chalice software, the response of the combination was compared to its single agents. The combinatorial effects were calculated using the synergy score.

[2] = tested on: HK301 cells; assay: Annexin V apoptosis assay; assay type: cell-based, human; settings: HK301 gliomaspheres, 72 hours, nutlin 2.5 μM
Method: as §1, §2

[3] = Protein binding (fraction unbound) in blood and brain; assay type: in vitro ADME
Excerpt: (§3) Fu refers to “fraction unbound”.

[4] = Kpuu; assay type: in vivo; settings: average; for Kp uu: brain/blood
Excerpt: as §3

[5] = tested on: GBM39 intracranial xenografts; assay: 18F-FDG PET/CT imaging of intracranial xenografts; assay type: in vivo, NSG mice; settings: erlotinib 75 mg/kg, 15 hours post administration
Method: (§4) Drugs were administered through oral gavage.
(§5) Following 1 hr unconscious uptake, mice were taken off anesthesia but kept warm for another 5 hr of uptake. 6 hr after the initial administration of ^18F-FDG, mice were imaged using G8 PET/CT scanner (Sofie Biosciences). Per above, quantification was performed by drawing 3D regions of interest (ROI) using the AMIDE software.

[6] = tested on: HK393 intracranial xenografts; assay: 18F-FDG PET/CT imaging of intracranial xenografts; assay type: in vivo, NSG mice; settings: acute EGFRi (erlotinib 75 mg/kg)
Method: as §4, §5

[7] = tested on: gliomas; settings: cited from earlier work
[8] = tested on: HK301; assay: GI50 assay, Cell Titer Glo, 3 days; assay type: cell-based, human; settings: HK301, FIG. 2
Method: The GI50 Assays were performed using patient-derived glioblastoma cells. […] Cells were incubated for 3 days and then proliferation was assessed by Cell Titer Glo (Promega #G7570).

[9] = Pharmacokinetic studies, plasma and brain; assay type: in vivo, male CD-1 mice; settings: oral; JGK005 10 mg/kg, erlotinib 25 mg/kg; FIG. 1
Method: Pharmacokinetic studies were performed on male CD-1 mice aged 8-10 weeks. Mice were dosed as indicated in duplicates. At the time points, whole blood was obtained by retro-orbital bleeding and brain tissue was harvested. Blood samples were centrifuged to obtain plasma and brain tissue was washed and homogenized. Samples were extracted with acetonitrile and supernatant was dried using a speed-vac. Dried samples were solubilized in 50:50:0.1 acetonitrile:water:formic acid and quantified on an Agilent 6400 series Triple Quadrupole LC/MS.

[10] = tested on: GBM39; assay: GI50 assay, Cell Titer Glo, 3 days; assay type: cell-based, human; settings: GBM39, FIG. 2
[11] = tested on: HK393 and HK254 cells; assay: 18F-FDG uptake assay in cells; assay type: cell-based, human; settings: 4 hours, pictilisib 1 μM
Method: Cells were plated at 5×10^4 cells/ml and treated with designated drugs for indicated time points. Following appropriate treatment, cells were collected and resuspended in glucose-free DMEM/F12 (USBiological) containing ^18F-FDG (radioactivity 1 μCi/mL). Cells were incubated at 37° C. for 1 hr and then washed three times with ice cold PBS. Radioactivity of each sample was then measured using a gamma counter.

Structure (SMILES): O=CC[C@@H](O)[C@H](O)[C@H](O)CO [2DG, 2-deoxyglucose]
lethality in combination with nutlin [1]: synergistic lethality | synergy with nutlin [2]: synergy with nutlin

Bound (blood) [3]: 94.07% | Bound (brain) [3]: 97.23% | fraction unbound [3]: 0.0277 | fraction unbound ([3]; blood): 0.0593 | Kpuu (Avg) [4]: 1.30
Structure (SMILES): COc1cc2ncnc(Nc3cccc(Cl)c3F)c2cc1OC(=O)N1CCN(C)C[C@H]1C [AZD3759]

Kp uu [4]: 0.0513
Structure (SMILES): C#Cc1cccc(Nc2ncnc3cc(OCCOC)c(OCCOC)cc23)c1 [Erlotinib]
18F-FDG uptake (PET) [5]: rapidly reduced ^18F-FDG uptake | 18F-FDG uptake (PET) [6]: no changes in ^18F-FDG uptake | response rates [7]: ≤ 25% | apoptosis (annexin V staining) ([1]; non-responders, 72 hours of erlotinib exposure, 1 μM): −3%

Structure (SMILES): C#Cc1cccc(Nc2ncnc3cc4c(cc23)OCCO4)c1 [JGK005]
activity against EGFR mutant glioblastoma [8]: lower activity than erlotinib | CNS penetration [9]: good CNS penetration compared to erlotinib | activity against EGFR mutant glioblastoma [10]: lower activity than erlotinib

Bound (blood) ([3]; blood (first line of each compound)): 99.48% | fraction unbound ([3]; blood (first line of each compound), read-out: Fu (blood)): 0.0052 | Bound (brain) ([3]; brain (second line of each compound)): 99.44% | fraction unbound ([3]; brain (second line of each compound), read-out: Fu (brain)): 0.0056 | Kp uu [4]: 1.15
Structure (SMILES): Fc1c(Cl)cccc1Nc1ncnc2cc3c(cc12)OCCO3 [JGK010]

Kpuu (Avg) [4]: 1.2994
Structure (SMILES): Fc1c(Br)cccc1Nc1ncnc2cc3c(cc12)OCCO3 [JGK037, N-(3-Bromo-2-fluorophenyl)-7,8-dihydro[1,4]dioxino[2,3-g]quinazolin-4-amine]

Structure (SMILES): CC[C@H]1/C=C/C=C/C[C@@H](C)[C@H](O)[C@@](C)(O)C(=O)[C@@H](C)[C@H](O)[C@@H](C)C(=O)[C@@H](C)[C@H](O)[C@@H](C)/C=C/C(=O)O[C@@H]2[C@H](C)[C@H](CC1)O[C@]1(CC[C@H](C)[C@H](C[C@@H](C)O)O1)[C@H]2C [oligomycin]
synergy with nutlin [2]: did not synergize with nutlin treatment

Structure (SMILES): CS(=O)(=O)N1CCN(Cc2cc3nc(-c4cccc5[nH]ncc45)nc(N4CCOCC4)c3s2)CC1 [pictilisib]
lethality in combination with nutlin [1]: synergistic lethality | 18F-FDG uptake [11]: significantly reduced ^18F-FDG uptake

Structure (SMILES): C=C(C)[C@H]1Cc2c(ccc3c2O[C@@H]2COc4cc(OC)c(OC)cc4[C@@H]2C3=O)O1 [rotenone]
synergy with nutlin [2]: did not synergize with nutlin treatment
